Assay results reported in patent US10165791B2, “Use of rubusoside for reducing or suppressing certain unpleasant taste impressions” (Symrise AG, priority 2010, dated 2019).

B1: miraculin: protein that in the presence of acids transforms the sour impression into a sweet taste impression (protein, UniProt P13087 30-220, looked up)
Miraculin: DSAPNPVLDIDGEKLRTGTNYYIVPVLRDHGGGLTVSATTPNGTFVCPPRVVQTRKEVDHDRPLAFFPENPKEDVVRVSTDLNINFSAFMPCRWTSSTVWRLDKYDESTGQYFVTIGGVKGNPGPETISSWFKIEEFCGSGFYKLVFCPTVCGSCKVKCGDVGIYIDQKGRRRLALSDKPFAFEFNKTVYF

Columns and labels:
[1] = isolated rubusoside from Rubus suavissimus; equivalent to 25 ppm; cited from earlier work
[2] = own tests: taste of rubusoside in water; format: in vivo, human
Method: It is known that extracts from Rubus suavissimus or certain compounds isolated therefrom are able to make sweet-tasting orally consumable preparations taste even sweeter, as described in WO 2008/049256. Moreover, it is known that isolated rubusoside from Rubus suavissimus tastes perceptibly sweet starting from a concentration of approx. 25 mg/kg (equivalent to 25 ppm) (taste recognition threshold). Rubusoside can be used as a sweetener (Hirono, S.; Chou, W. H.; Kasai, R.; Tanaka, O.; Tada, T., Sweet and bitter diterpene glucosides from leaves of Rubus suavissimus. Chemical & Pharmaceutical Bulletin 1990, 38, (6), 1743-1744).

[3] = Reduction of astringent and sour impression, panel of trained tasters; format: in vivo, human; settings: Yogurt 0.1% fat; 10 mg/kg rubusoside
Method: The following products, in each case without and with a flavoring composition, were assessed by a panel of trained tasters. The astringent impression and sour impression were assessed on a scale from 1 (not perceptible) to 9 (very strong) and averaged for the tasters.

[4] = in the presence of acids; cited from earlier work

Molecule | taste recognition threshold (tastes perceptibly sweet starting from) [1] | sweet taste equivalent to the sweetness of an aqueous sucrose solution ([2]; 100 mg/kg (100 ppm) in water) | concentration above which a recognizably bitter taste is additionally displayed ([2]; in water) | Astringent impression (0-9) b) with test substance [3] | Sour impression (0-9) b) with test substance [3] | duration of the conversion of sour impression to sweet taste [4]
C=C1C[C@@]23CC[C@H]4[C@@](C)(CCC[C@@]4(C)C(=O)O[C@@H]4O[C@H](CO)[C@@H](O)[C@H](O)[C@H]4O)[C@@H]2CC[C@]1(O[C@@H]1O[C@H](CO)[C@@H](O)[C@H](O)[C@H]1O)C3 [rubusoside, Rubusoside] | approx. 25 mg/kg | 1.4% | > 100 mg/kg | 5 | 5.5 | –
B1 | – | – | – | – | – | 2 to 4 h
